According to ChEMBL document CHEMBL5096161, “Medulloblastoma drugs in development: Current leads, trials and drawbacks” (Eur J Med Chem, 2021):

Columns and labels:
[1] = Anticancer activity against human MED-MEB-8A cells assessed as reduction in cell viability incubated for 72 hrs; type: functional, cell-based
D283 Med = experiment: Anticancer activity against human D283 Med cells assessed as reduction in cell viability incubated for 72 hrs; type: functional, cell-based
[2] = Antitumor activity against human D425 Med cells assessed as reduction in cell viability incubated for 24 hrs by Alamar blue assay; type: functional, cell-based
[3] = Antitumor activity against human D341 Med cells assessed as reduction in cell viability incubated for 24 hrs by Alamar blue assay; type: functional, cell-based
[4] = Antitumor activity against human D384 Med cells assessed as reduction in cell viability incubated for 24 hrs by Alamar blue assay; type: functional, cell-based
[5] = molecular target: Vascular endothelial growth factor receptor 2 (Homo sapiens, UniProt P35968); experiment: Inhibition of human VEGFR2 (789 to 1356 residues) assessed as reduction in autophosphorylation at Y1175 residues using poly (Glu4Tyr1) peptide and ATP as substrate incubated for 60 mins by ADP-Glo Kinase Assay
Mus musculus = experiment: Antitumor activity in Ptch+/- p53-/- mutant mouse medulloblastoma allograft model assessed as increase in survival rate at 50 mg/kg, po QD relative to control (Rvb=75 days); type: functional

Vascular endothelial growth factor receptor 2, sequence (P35968 whole entry, the tested form may be a part): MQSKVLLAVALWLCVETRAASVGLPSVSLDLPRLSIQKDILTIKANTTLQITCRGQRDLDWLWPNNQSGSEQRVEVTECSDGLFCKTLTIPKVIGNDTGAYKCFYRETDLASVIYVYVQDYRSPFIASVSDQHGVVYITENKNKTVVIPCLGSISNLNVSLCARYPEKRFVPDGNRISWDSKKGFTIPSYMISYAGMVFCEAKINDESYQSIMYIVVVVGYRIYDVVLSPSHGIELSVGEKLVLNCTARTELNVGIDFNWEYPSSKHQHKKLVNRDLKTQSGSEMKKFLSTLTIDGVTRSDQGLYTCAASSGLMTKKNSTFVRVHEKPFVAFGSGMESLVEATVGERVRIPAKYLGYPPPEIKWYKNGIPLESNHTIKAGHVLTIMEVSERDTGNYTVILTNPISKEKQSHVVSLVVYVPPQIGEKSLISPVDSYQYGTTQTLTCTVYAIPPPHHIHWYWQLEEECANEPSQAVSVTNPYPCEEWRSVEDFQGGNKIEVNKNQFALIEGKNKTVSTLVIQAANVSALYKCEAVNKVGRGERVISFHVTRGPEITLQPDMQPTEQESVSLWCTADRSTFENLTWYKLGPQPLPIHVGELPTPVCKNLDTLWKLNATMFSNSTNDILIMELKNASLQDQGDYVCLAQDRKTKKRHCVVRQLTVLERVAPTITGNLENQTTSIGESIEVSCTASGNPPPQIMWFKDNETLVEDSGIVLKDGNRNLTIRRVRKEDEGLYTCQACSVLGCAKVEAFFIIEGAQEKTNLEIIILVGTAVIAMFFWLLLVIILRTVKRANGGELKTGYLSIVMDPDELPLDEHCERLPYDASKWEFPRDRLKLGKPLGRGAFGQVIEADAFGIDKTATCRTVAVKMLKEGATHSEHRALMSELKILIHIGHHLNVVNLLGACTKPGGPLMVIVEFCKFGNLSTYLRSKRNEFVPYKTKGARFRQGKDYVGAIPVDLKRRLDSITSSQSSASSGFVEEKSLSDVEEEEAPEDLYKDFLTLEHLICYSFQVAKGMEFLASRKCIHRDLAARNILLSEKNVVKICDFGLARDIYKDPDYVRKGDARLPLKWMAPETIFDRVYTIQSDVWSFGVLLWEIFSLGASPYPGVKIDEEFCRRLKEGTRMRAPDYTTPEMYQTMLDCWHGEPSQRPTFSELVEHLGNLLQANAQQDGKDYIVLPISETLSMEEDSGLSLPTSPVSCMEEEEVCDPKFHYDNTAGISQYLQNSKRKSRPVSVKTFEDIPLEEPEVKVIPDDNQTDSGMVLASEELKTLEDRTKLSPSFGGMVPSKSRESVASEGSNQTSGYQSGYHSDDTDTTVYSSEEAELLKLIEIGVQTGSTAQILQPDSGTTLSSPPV

`C[C@H]1O[C@@H](O[C@H]2[C@@H](O)C[C@H](O[C@H]3[C@@H](O)C[C@H](O[C@H]4CC[C@@]5(C)[C@H](CC[C@@H]6[C@@H]5C[C@@H](O)[C@]5(C)[C@@H](C7=CC(=O)OC7)CC[C@]65O)C4)O[C@@H]3C)O[C@@H]2C)C[C@H](O)[C@@H]1O` [DIGOXIN] showed an IC50 [1] of 0.106 µM and an IC50 (D283 Med) of 0.01 µM.
With `CCCCCCCCc1ccc(CCC(N)(CO)CO)cc1` [FINGOLIMOD] the IC50 [2] was 7.5 µM, the IC50 [3] was 5.5 µM and the IC50 [4] was 7.3 µM.
With `COC(=O)Nc1nc2cc(C(=O)c3ccccc3)ccc2[nH]1` [MEBENDAZOLE] the IC50 [5] was 4.3 µM and the MST (Mus musculus) was 113 days.
